Source: the NIST ThermoML archive (doi:10.1016/j.fluid.2015.04.021)
± gives the expanded uncertainty stated by the source.

Test: cn = amount concentration of the nth substance listed, in mol/dm3
Details: 101.3 kPa, Liquid; for viscosity: Falling or rolling sphere viscometry; for mass density: Vibrating tube method

NCCCC[C@H](N)C(=O)[O-].[K+] [potassium L-lysinate] + O
Details | mass density [kg/m3] | viscosity [mPa·s]
298.15 K, c1 = 0.2001 | 1010.5 ± 8 | 1.003 ± 0.16
298.15 K, c1 = 0.25 | 1017.5 ± 8 | 1.008 ± 0.16
298.15 K, c1 = 0.5 | 1028.2 ± 8 | 1.29 ± 0.21
298.15 K, c1 = 0.75 | 1043.2 ± 8 | 1.348 ± 0.22
298.15 K, c1 = 1.008 | 1056 ± 8 | 1.575 ± 0.25
298.15 K, c1 = 1.529 | 1084.8 ± 8 | 2.286 ± 0.37
298.15 K, c1 = 1.79 | 1111 ± 8 | 3.236 ± 0.52
298.15 K, c1 = 2 | 1121.6 ± 8 | 3.564 ± 0.57
298.15 K, c1 = 2.5 | 1141.9 ± 8 | 5.406 ± 0.87
298.15 K, c1 = 3 | 1151 ± 8.1 | 8.407 ± 1.3
303.15 K, c1 = 0.2001 | 1009 ± 8 | 0.8978 ± 0.14
303.15 K, c1 = 0.25 | 1016 ± 8 | 0.9023 ± 0.14
303.15 K, c1 = 0.5 | 1027.1 ± 8 | 1.158 ± 0.19
303.15 K, c1 = 0.75 | 1041.4 ± 8 | 1.2 ± 0.19
303.15 K, c1 = 1.008 | 1054.1 ± 8 | 1.397 ± 0.22
303.15 K, c1 = 1.529 | 1082.7 ± 8 | 2.007 ± 0.32
303.15 K, c1 = 1.79 | 1108.6 ± 8 | 2.805 ± 0.45
303.15 K, c1 = 2 | 1119.1 ± 8 | 3.054 ± 0.49
303.15 K, c1 = 2.5 | 1139.1 ± 8 | 4.597 ± 0.74
303.15 K, c1 = 3 | 1148.3 ± 8.1 | 7.027 ± 1.1
308.15 K, c1 = 0.2001 | 1007.3 ± 8 | 0.8095 ± 0.13
308.15 K, c1 = 0.25 | 1014.2 ± 8 | 0.8125 ± 0.13
308.15 K, c1 = 0.5 | 1025.2 ± 8 | 1.045 ± 0.17
308.15 K, c1 = 0.75 | 1039.5 ± 8 | 1.075 ± 0.17
308.15 K, c1 = 1.008 | 1052 ± 8 | 1.247 ± 0.2
308.15 K, c1 = 1.529 | 1080.4 ± 8 | 1.774 ± 0.28
308.15 K, c1 = 1.79 | 1106 ± 8 | 2.454 ± 0.39
308.15 K, c1 = 2 | 1116.5 ± 8 | 2.676 ± 0.43
308.15 K, c1 = 2.5 | 1136.4 ± 8 | 3.95 ± 0.63
308.15 K, c1 = 3 | 1145.5 ± 8.1 | 5.946 ± 0.95
313.15 K, c1 = 0.2001 | 1005.4 ± 8 | 0.7344 ± 0.12
313.15 K, c1 = 0.25 | 1012.3 ± 8 | 0.7377 ± 0.12
313.15 K, c1 = 0.5 | 1023.2 ± 8 | 0.9512 ± 0.15
313.15 K, c1 = 0.75 | 1037.3 ± 8 | 0.9697 ± 0.16
313.15 K, c1 = 1.008 | 1049.8 ± 8 | 1.121 ± 0.18
313.15 K, c1 = 1.529 | 1077.9 ± 8 | 1.581 ± 0.25
313.15 K, c1 = 1.79 | 1103.4 ± 8 | 2.173 ± 0.35
313.15 K, c1 = 2 | 1113.8 ± 8 | 2.358 ± 0.38
313.15 K, c1 = 2.5 | 1133.5 ± 8 | 3.433 ± 0.55
313.15 K, c1 = 3 | 1142.6 ± 8.1 | 5.094 ± 0.82
318.15 K, c1 = 0.2001 | 1003.3 ± 8 | 0.6711 ± 0.11
318.15 K, c1 = 0.25 | 1010.2 ± 8 | 0.6737 ± 0.11
318.15 K, c1 = 0.5 | 1021 ± 8 | 0.866 ± 0.14
318.15 K, c1 = 0.75 | 1035.1 ± 8 | 0.8813 ± 0.14
318.15 K, c1 = 1.008 | 1047.5 ± 8 | 1.014 ± 0.16
318.15 K, c1 = 1.529 | 1075.4 ± 8 | 1.418 ± 0.23
318.15 K, c1 = 1.79 | 1100.8 ± 8 | 1.934 ± 0.31
318.15 K, c1 = 2 | 1111 ± 8 | 2.116 ± 0.34
318.15 K, c1 = 2.5 | 1130.6 ± 8 | 3.008 ± 0.48
318.15 K, c1 = 3 | 1139.7 ± 8 | 4.407 ± 0.71
323.15 K, c1 = 0.2001 | 1001.1 ± 8 | 0.6168 ± 0.099
323.15 K, c1 = 0.25 | 1007.9 ± 8 | 0.6185 ± 0.099
323.15 K, c1 = 0.5 | 1018.6 ± 8 | 0.796 ± 0.13
323.15 K, c1 = 0.75 | 1032.7 ± 8 | 0.804 ± 0.13
323.15 K, c1 = 1.008 | 1045 ± 8 | 0.9223 ± 0.15
323.15 K, c1 = 1.529 | 1072.8 ± 8 | 1.28 ± 0.21
323.15 K, c1 = 1.79 | 1098.1 ± 8 | 1.735 ± 0.28
323.15 K, c1 = 2 | 1108.1 ± 8 | 1.916 ± 0.31
323.15 K, c1 = 2.5 | 1127.6 ± 8 | 2.659 ± 0.43
323.15 K, c1 = 3 | 1136.7 ± 8 | 3.852 ± 0.62
328.15 K, c1 = 0.2001 | 998.6 ± 8 | 0.5697 ± 0.091
328.15 K, c1 = 0.25 | 1005.4 ± 8 | 0.5705 ± 0.091
328.15 K, c1 = 0.5 | 1016.2 ± 8 | 0.7351 ± 0.12
328.15 K, c1 = 0.75 | 1030.1 ± 8 | 0.7388 ± 0.12
328.15 K, c1 = 1.008 | 1042.4 ± 8 | 0.8431 ± 0.14
328.15 K, c1 = 1.529 | 1070.1 ± 8 | 1.162 ± 0.19
328.15 K, c1 = 1.79 | 1095.2 ± 8 | 1.566 ± 0.25
328.15 K, c1 = 2 | 1105.2 ± 8 | 1.757 ± 0.28
328.15 K, c1 = 2.5 | 1124.6 ± 8 | 2.368 ± 0.38
328.15 K, c1 = 3 | 1133.7 ± 8 | 3.394 ± 0.54
333.15 K, c1 = 0.2001 | 995.6 ± 8 | 0.5292 ± 0.085
333.15 K, c1 = 0.25 | 1002.8 ± 8 | 0.5294 ± 0.085
333.15 K, c1 = 0.5 | 1013.7 ± 8 | 0.6833 ± 0.11
333.15 K, c1 = 0.75 | 1027.5 ± 8 | 0.6798 ± 0.11
333.15 K, c1 = 1.008 | 1039.7 ± 8 | 0.7748 ± 0.12
333.15 K, c1 = 1.529 | 1067.2 ± 8 | 1.061 ± 0.17
333.15 K, c1 = 1.79 | 1092.3 ± 8 | 1.421 ± 0.23
333.15 K, c1 = 2 | 1102.2 ± 8 | 1.621 ± 0.26
333.15 K, c1 = 2.5 | 1121.5 ± 8 | 2.136 ± 0.34
333.15 K, c1 = 3 | 1130.6 ± 8 | 3.012 ± 0.48
338.15 K, c1 = 0.2001 | 993.4 ± 8 | 0.4937 ± 0.079
338.15 K, c1 = 0.25 | 1002.8 ± 8 | 0.4939 ± 0.079
338.15 K, c1 = 0.5 | 1011 ± 8 | 0.6409 ± 0.1
338.15 K, c1 = 0.75 | 1024.7 ± 8 | 0.629 ± 0.1
338.15 K, c1 = 1.008 | 1036.9 ± 8 | 0.7155 ± 0.11
338.15 K, c1 = 1.529 | 1064.3 ± 8 | 0.9729 ± 0.16
338.15 K, c1 = 1.79 | 1089.3 ± 8 | 1.296 ± 0.21
338.15 K, c1 = 2 | 1099.1 ± 8 | 1.501 ± 0.24
338.15 K, c1 = 2.5 | 1118.3 ± 8 | 1.927 ± 0.31
338.15 K, c1 = 3 | 1127.5 ± 8 | 2.693 ± 0.43
343.15 K, c1 = 0.2001 | 990.6 ± 8 | 0.4633 ± 0.074
343.15 K, c1 = 0.25 | 997.3 ± 8 | 0.463 ± 0.074
343.15 K, c1 = 0.5 | 1008.1 ± 8 | 0.6042 ± 0.097
343.15 K, c1 = 0.75 | 1021.8 ± 8 | 0.5855 ± 0.094
343.15 K, c1 = 1.008 | 1033.9 ± 8 | 0.6637 ± 0.11
343.15 K, c1 = 1.529 | 1061.3 ± 8 | 0.8961 ± 0.14
343.15 K, c1 = 1.79 | 1086.3 ± 8 | 1.188 ± 0.19
343.15 K, c1 = 2 | 1096 ± 8 | 1.435 ± 0.23
343.15 K, c1 = 2.5 | 1115 ± 8 | 1.748 ± 0.28
343.15 K, c1 = 3 | 1124.3 ± 8 | 2.423 ± 0.39
348.15 K, c1 = 0.2001 | 987.7 ± 8 | 0.4359 ± 0.07
348.15 K, c1 = 0.25 | 994.3 ± 8 | 0.4358 ± 0.07
348.15 K, c1 = 0.5 | 1005.2 ± 8 | 0.5715 ± 0.091
348.15 K, c1 = 0.75 | 1018.7 ± 8 | 0.5472 ± 0.088
348.15 K, c1 = 1.008 | 1030.9 ± 8 | 0.6181 ± 0.099
348.15 K, c1 = 1.529 | 1058.2 ± 8 | 0.8306 ± 0.13
348.15 K, c1 = 1.79 | 1083.2 ± 8 | 1.095 ± 0.18
348.15 K, c1 = 2 | 1092.7 ± 8 | 1.346 ± 0.22
348.15 K, c1 = 2.5 | 1111.8 ± 8 | 1.594 ± 0.26
348.15 K, c1 = 3 | 1121.1 ± 8 | 2.208 ± 0.35
